{
  "source": "patent US8557737B2",
  "about": "“Methods of altering poppy characteristics” (priority 2005, dated 2013)",
  "type_in_all_cases": "in vivo, Papaver somniferum",
  "key": {"[1]": {"test_system": "poppy crops", "experiment": "Example 13: field trial, metsulfuron-methyl, Lontrel and metsulfuron-methyl+Lontrel, morphine crop", "conditions": "Trt 3: COMPOUND 1 120 MG/HA + PULSE .2% V/V at RC, ERU and LRU", "protocol": "(§1) All trials were conducted on poppy crops. Seed was treated with Thiram (5.6 g of Thiram 800/kg seed) and Apron (4 g/kg) and sown at a rate of approximately 750 g/ha. Fertilisers were applied at sowing. Most commonly, either 50:50 lime:superphosphate/triple superphosphate at 125 kg/ha, or lime:superphosphate at 250 kg/ha, were mixed with seed and drilled at a depth of 15 mm. In the same operation, NPK (nitrogen:phosphorus:potassium), at various rates, was banded 75 mm below the seed, unless otherwise stated. All crops were subjected to herbicide sprays for weed control, fungicide sprays for disease control, insecticide sprays if appropriate and were irrigated as required.\n(§2) All spray applications were made with a precision sprayer, using Silvan Lurmark flat-fan, low-drift nozzles (LD110-0015). Spray equipment was calibrated to deliver 153 L water/ha.\n(§3) At harvest, a 2 m×4 m quadrat was placed in each plot (3 m×6 m, unless otherwise stated) and capsules hand-picked from this area. Capsules were broken up, seed and capsule material separated and weighed. Capsule moisture readings were taken with a moisture meter. Alkaloid yield data were calculated on Pesticide Research Manager (version 5 for Windows) using the formulae below. Briefly, capsule weight was adjusted for moisture to a dry weight, 5% of seed weight was added to this (this amount of capsule material regularly occurs in seed samples after processing) to give a capsule weight per plot. Seed weight was adjusted to 95% of crude weight. Straw weights were determined by multiplying dry capsule weight by 1.3 (estimated amount of stem material in a commercial harvest) and adjusted to 11% moisture. When Lontrel was applied to crops exact capsule and seed weight data were entered. Analyses of variance and a Multiple Range Test were performed on data using Pesticide Research Manager. Significant differences (P=0.05) between treatments are denoted by different lower case letters adjacent to treatment means in the tables of results.\nTrial to evaluate applications of metsulfuron-methyl (Compound 1), Lontrel and metsulfuron-methyl+Lontrel, in a morphine crop. Treatment sprays were applied to crop at row cover, early run-up and late run-up. Plant heights were measured at green capsule stage. Lodging was assessed at harvest."}, "[2]": {"test_system": "poppy crops", "experiment": "Example 9: field trial, mesosulfuron-methyl and metsulfuron-methyl, morphine crop", "conditions": "COMPOUND 1 120 MG/HA + PULSE .2 % V/V at GC, LRU and EBE", "protocol": "as §1, §2\nas §3, with “Manager.” for “Manager. Significant differences (P=0.05) between treatments are denoted by different lower case letters adjacent to treatment means in the tables of results.”\nTrial to evaluate applications of mesosulfuron-methyl (Compound 2) and metsulfuron-methyl (Compound 1), in a morphine crop. Treatment sprays were applied to crop at ground cover, late run-up and early bud-emergence, respectively. Plant heights were measured at green capsule stage, and lodging assessed on the day of capsule harvest."}, "[3]": {"test_system": "poppy crops", "experiment": "Example 4: field trial, metsulfuron-methyl alone or tank-mixed with Sunny at early run-up, morphine crop", "conditions": "COMPOUND 1 120 MG/HA + PULSE .2 % v/v at ERU", "protocol": "as §1, §2, §3\nTrial to evaluate metsulfuron-methyl (Compound 1) (120 mg/ha) alone, or tank-mixed with Sunny (1 L/ha), in a morphine crop. Treatments were applied to crop at early run-up, plant heights were measured at early green capsule stage."}, "[4]": {"test_system": "poppy crops", "experiment": "Example 1: field trial, metsulfuron-methyl 36 or 120 mg/ha at 12-14 leaf and ground cover, morphine crop", "protocol": "as §1, §2, §3\nMetsulfuron-methyl (Compound 1) was applied at a rate of 36 or 120 mg/ha at 12-14 leaf and ground cover growth stages, in a morphine crop."}, "[5]": {"test_system": "poppy crops", "experiment": "Example 3: field trial, metsulfuron-methyl alone or tank-mixed with Sunny at early-mid run-up, morphine crop", "conditions": "COMPOUND 1 120 MG/HA + PULSE .2 % V/V at E-MRU", "protocol": "as §1, §2, §3\nTrial to evaluate metsulfuron-methyl (Compound 1) (120 mg/ha) applied alone, or tank-mixed with Sunny (1 L/ha=50 g/ha), in a morphine crop. Treatments were applied to crop at early-mid run-up, plant heights were measured at green capsule stage."}, "[6]": {"test_system": "poppy crops", "experiment": "Example 11: field trial, metsulfuron-methyl, Sunny and metsulfuron-methyl+Sunny at row cover, early run-up, bud-emergence/early hook, morphine crop", "conditions": "Trt 4: COMPOUND 1 120 MG/HA + PULSE .2% V/V at RC, ERU and BE/EH", "protocol": "as §1, §2, §3\nTrial to evaluate applications of metsulfuron-methyl (Compound 1), Sunny and metsulfuron-methyl+Sunny, in a morphine crop. Treatment sprays were applied to crop at row cover, early run-up and bud-emergence/early hook. Plant heights were measured at green capsule stage."}, "[7]": {"conditions": "measured at green capsule stage"}},
  "data": [
    {"smiles": "COC(=O)c1ccccc1S(=O)(=O)NC(=O)Nc1nc(C)nc(OC)n1", "note": "[Compound 1, metsulfuron-methyl]", "values": [
      {"measurement": "CAPS/SEED RATIO", "setting": "[1]", "value": 3.431, "unit": "a"},
      {"measurement": "CROP WEIGHT", "setting": "[1]", "value": 3.11, "unit": "b t/ha"},
      {"measurement": "MORPHINE", "setting": "[1]", "value": 50.81, "unit": "a kg/ha"},
      {"measurement": "SEED", "setting": "[1]", "value": 582, "unit": "c kg/ha"},
      {"measurement": "STRAW", "setting": "[1]", "value": 2530, "unit": "a kg/ha"},
      {"measurement": "STRAW MORPHINE", "setting": "[1]", "value": 2.01, "unit": "a %"},
      {"measurement": "LODGING", "setting": "[1]; assessed at harvest", "value": 2.2, "unit": "b %"},
      {"measurement": "HEIGHT", "setting": "[1]; height at green capsule stage", "value": 95.8, "unit": "b cm"},
      {"measurement": "CAPSULE/SEED RATIO", "setting": "[2]", "value": 3.844, "unit": "a"},
      {"measurement": "CROP WEIGHT", "setting": "[2]", "value": 2.67, "unit": "b t/ha"},
      {"measurement": "MORPHINE", "setting": "[2]", "value": 43.94, "unit": "a kg/ha"},
      {"measurement": "SEED", "setting": "[2]", "value": 468, "unit": "b kg/ha"},
      {"measurement": "STRAW", "setting": "[2]", "value": 2206, "unit": "a kg/ha"},
      {"measurement": "STRAW MORPHINE", "setting": "[2]", "value": 2.04, "unit": "a %"},
      {"measurement": "LODGING", "setting": "[2]; assessed on the day of capsule harvest", "value": 2.3, "unit": "c %"},
      {"measurement": "HEIGHT", "setting": "[2]; [7]", "value": 94.5, "unit": "ab cm"},
      {"measurement": "CAPSULE/SEED RATIO", "setting": "[3]", "value": 0.978, "unit": "a"},
      {"measurement": "CROP WEIGHT", "setting": "[3]", "value": 2.30, "unit": "b t/ha"},
      {"measurement": "MORPHINE", "setting": "[3]", "value": 31.32, "unit": "a kg/ha"},
      {"measurement": "SEED", "setting": "[3]", "value": 955, "unit": "c kg/ha"},
      {"measurement": "STRAW", "setting": "[3]", "value": 1349, "unit": "a kg/ha"},
      {"measurement": "STRAW MORPHINE", "setting": "[3]", "value": 2.32, "unit": "a %"},
      {"measurement": "PLANT HEIGHT", "setting": "[3]; measured at early green capsule stage", "value": 82.6, "unit": "a cm"},
      {"measurement": "CAPSULE/SEED RATIO", "setting": "[4]; 36 MG/HA at 12-14LF", "value": 0.603},
      {"measurement": "CROP WEIGHT", "setting": "[4]; 36 MG/HA at 12-14LF", "value": 3.78, "unit": "t/ha"},
      {"measurement": "MORPHINE", "setting": "[4]; 36 MG/HA at 12-14LF", "value": 24.25, "unit": "kg/ha"},
      {"measurement": "SEED", "setting": "[4]; 36 MG/HA at 12-14LF", "value": 2020, "unit": "kg/ha"},
      {"measurement": "STRAW", "setting": "[4]; 36 MG/HA at 12-14LF", "value": 1757, "unit": "kg/ha"},
      {"measurement": "STRAW MORPHINE", "setting": "[4]; 36 MG/HA at 12-14LF", "value": 1.38, "unit": "%"},
      {"measurement": "CAPSULE/SEED RATIO", "setting": "[4]; 120 MG/HA at 12-14LF", "value": 0.673},
      {"measurement": "CROP WEIGHT", "setting": "[4]; 120 MG/HA at 12-14LF", "value": 3.37, "unit": "t/ha"},
      {"measurement": "MORPHINE", "setting": "[4]; 120 MG/HA at 12-14LF", "value": 24.40, "unit": "kg/ha"},
      {"measurement": "SEED", "setting": "[4]; 120 MG/HA at 12-14LF", "value": 1710, "unit": "kg/ha"},
      {"measurement": "STRAW", "setting": "[4]; 120 MG/HA at 12-14LF", "value": 1660, "unit": "kg/ha"},
      {"measurement": "STRAW MORPHINE", "setting": "[4]; 120 MG/HA at 12-14LF", "value": 1.47, "unit": "%"},
      {"measurement": "CAPSULE/SEED RATIO", "setting": "[4]; 120 MG/HA at GC (ground cover)", "value": 1.253},
      {"measurement": "CROP WEIGHT", "setting": "[4]; 120 MG/HA at GC (ground cover)", "value": 3.10, "unit": "t/ha"},
      {"measurement": "MORPHINE", "setting": "[4]; 120 MG/HA at GC (ground cover)", "value": 26.19, "unit": "kg/ha"},
      {"measurement": "SEED", "setting": "[4]; 120 MG/HA at GC (ground cover)", "value": 1105, "unit": "kg/ha"},
      {"measurement": "STRAW", "setting": "[4]; 120 MG/HA at GC (ground cover)", "value": 1999, "unit": "kg/ha"},
      {"measurement": "STRAW MORPHINE", "setting": "[4]; 120 MG/HA at GC (ground cover)", "value": 1.31, "unit": "%"},
      {"measurement": "CAPSULE/SEED RATIO", "setting": "[5]", "value": 0.984, "unit": "ab"},
      {"measurement": "CROP WEIGHT", "setting": "[5]", "value": 1.52, "unit": "ab t/ha"},
      {"measurement": "MORPHINE", "setting": "[5]", "value": 20.88, "unit": "a kg/ha"},
      {"measurement": "SEED", "setting": "[5]", "value": 640, "unit": "c kg/ha"},
      {"measurement": "STRAW", "setting": "[5]", "value": 884, "unit": "ab kg/ha"},
      {"measurement": "STRAW MORPHINE", "setting": "[5]", "value": 2.36, "unit": "a %"},
      {"measurement": "PLANT HEIGHT", "setting": "[5]; [7]", "value": 101.0, "unit": "a cm"},
      {"measurement": "CAPSULE/SEED RATIO", "setting": "[6]", "value": 8.488, "unit": "a"},
      {"measurement": "CROP WEIGHT", "setting": "[6]", "value": 3.22, "unit": "d t/ha"},
      {"measurement": "LODGING", "setting": "[6]", "value": 1.2, "unit": "b %"},
      {"measurement": "MORPHINE", "setting": "[6]", "value": 60.39, "unit": "a kg/ha"},
      {"measurement": "SEED", "setting": "[6]", "value": 267, "unit": "c kg/ha"},
      {"measurement": "STRAW", "setting": "[6]", "value": 2955, "unit": "a kg/ha"},
      {"measurement": "STRAW MORPHINE", "setting": "[6]", "value": 2.04, "unit": "a %"},
      {"measurement": "HEIGHT", "setting": "[6]; height at green capsule stage", "value": 99.2, "unit": "a cm"}
    ]}
  ]
}
